Measurements: ChEMBL document CHEMBL3045146, “Synthesis and biological activity of novel phenyltriazolinone derivatives” (2010)
Activity calls are given as the source filed them. The rule behind the calls is not given here.

Assays:
Brassica juncea = test: Herbicidal activity against Brassica juncea assessed as growth inhibition at 150 g/ha; format: functional, organism-based
Poa annua = test: Herbicidal activity against Poa annua assessed as growth inhibition at 150 g/ha; format: functional, organism-based
Echinochloa crus-galli = test: Herbicidal activity against Echinochloa crus-galli (barnyard grass) assessed as growth inhibition at 150 g/ha; format: functional, organism-based
Digitaria sanguinalis = test: Herbicidal activity against Digitaria sanguinalis (hairy crabgrass) assessed as growth inhibition at 150 g/ha; format: functional, organism-based
Eclipta prostrata = test: Herbicidal activity against Eclipta prostrata assessed as growth inhibition at 150 g/ha; format: functional; settings: for inhibition of growth at 150 g/ha: read-out: GI
Amaranthus retroflexus = test: Herbicidal activity against Amaranthus retroflexus assessed as growth inhibition at 150 g/ha; format: functional, organism-based

SMILES	growth inhibition (GI) (Brassica juncea)	growth inhibition (GI) (Poa annua)	growth inhibition (GI) (Echinochloa crus-galli)	growth inhibition (GI) (Digitaria sanguinalis)	growth inhibition (GI) (Eclipta prostrata)	growth inhibition (GI) (Amaranthus retroflexus)	inhibition of growth at 150 g/ha (Eclipta prostrata) [%]
CO/N=C(/C(=O)OC)c1ccccc1Cn1c(C)nn(-c2cc(NS(C)(=O)=O)c(Cl)cc2F)c1=O	inactive	inactive	inactive	inactive	inactive	inactive	
CCS(=O)(=O)Nc1cc(-n2nc(C)n(Cc3ccccc3/C(=C\OC)C(=O)OC)c2=O)c(Cl)cc1Cl	inactive	inactive	inactive	inactive	inactive	inactive	
COC(=O)N(OC)c1ccccc1Cn1c(C)nn(-c2cc(NS(C)(=O)=O)c(Cl)cc2F)c1=O	inactive	inactive	inactive	inactive		inactive	70
CCS(=O)(=O)Nc1cc(-n2nc(C)n(Cc3ccccc3/C(=N\OC)C(=O)OC)c2=O)c(Cl)cc1Cl	inactive	inactive	inactive	inactive	inactive	inactive	
CO/N=C(/C(=O)OC)c1ccccc1Cn1c(C)nn(-c2cc(NS(C)(=O)=O)c(Cl)cc2Cl)c1=O	inactive	inactive	inactive	inactive	inactive	inactive	
CCS(=O)(=O)Nc1cc(-n2nc(C)n(Cc3ccccc3N(OC)C(=O)OC)c2=O)c(Cl)cc1Cl	inactive	Active	Active	Active	inactive	inactive	
CO/C=C(/C(=O)OC)c1ccccc1Cn1c(C)nn(-c2cc(NS(=O)(=O)c3ccccc3)c(Cl)cc2Cl)c1=O	inactive	inactive	inactive	inactive	inactive	inactive	
CO/C=C(/C(=O)OC)c1ccccc1Cn1c(C)nn(-c2cc(NS(C)(=O)=O)c(Cl)cc2Cl)c1=O	inactive	inactive	inactive	inactive	inactive	inactive	
COC(=O)N(OC)c1ccccc1Cn1c(C)nn(-c2cc(NS(C)(=O)=O)c(Cl)cc2Cl)c1=O	inactive	inactive	inactive	inactive	inactive	inactive	
CCS(=O)(=O)Nc1cc(-n2nc(C)n(Cc3ccccc3/C(=C\OC)C(=O)OC)c2=O)c(F)cc1Cl	inactive	inactive	inactive	inactive	inactive	inactive	
CO/C=C(/C(=O)OC)c1ccccc1Cn1c(C)nn(-c2cc(NS(C)(=O)=O)c(Cl)cc2F)c1=O	inactive	inactive	inactive	inactive	inactive	inactive	
CO/C=C(/C(=O)OC)c1ccccc1Cn1c(C)nn(-c2cc(NS(=O)(=O)c3ccccc3)c(Cl)cc2F)c1=O	inactive	inactive	inactive	inactive	inactive	inactive	
CO/N=C(/C(=O)OC)c1ccccc1Cn1c(C)nn(-c2cc(NS(=O)(=O)c3ccccc3)c(Cl)cc2Cl)c1=O	inactive	inactive	inactive	inactive		inactive	70
CCS(=O)(=O)Nc1cc(-n2nc(C)n(Cc3ccccc3N(OC)C(=O)OC)c2=O)c(F)cc1Cl	inactive	inactive	inactive	inactive		inactive	70
CO/N=C(/C(=O)OC)c1ccccc1Cn1c(C)nn(-c2cc(NS(=O)(=O)c3ccccc3)c(Cl)cc2F)c1=O	inactive	inactive	inactive	inactive	inactive	inactive	
COC(=O)N(OC)c1ccccc1Cn1c(C)nn(-c2cc(NS(=O)(=O)c3ccccc3)c(Cl)cc2F)c1=O	inactive	inactive	inactive	inactive	inactive	inactive	
COC(=O)N(OC)c1ccccc1Cn1c(C)nn(-c2cc(NS(=O)(=O)c3ccccc3)c(Cl)cc2Cl)c1=O	inactive	Active	Active	Active	inactive	inactive	
